Counter-ions that a name gives are not always drawn.
System: partial urethra obstruction model in guinea pigs
Assay: Dysuria pathological model: cystometry in partial urethra obstruction model
Format: in vivo, Hartley female guinea pigs
Settings: guinea pig; for Frequency of occurrence of uninhibited contraction, before administration / Residual urine volume, before administration: baseline
Protocol: Three-four weeks old Hartley female guinea pigs (Japan SLC, Inc.) were given celiotomy under anesthesia with pentobarbital (30 mg/kg i.p.) and in their urethra to the peripheral side by 1-2 mm from the bladder neck, each a polyethylene tube of […] and 2.0 mm in inner diameter was placed.
The model was catheterized under anesthesia with urethane (1 g/kg i.p.) at the apex of urinary bladder and right jugular vein for cystometrography and intravenous administration, respectively. The other end of the bladder catheter was connected to a pressure transducer and infusion pump via a three way stop-cock, and physiological saline was continuously infused into the bladder through the infusion pump at a rate of 0.4 mL/min. to induce micturition reflex. Immediately after the micturition reflex was induced, infusion of physiological saline into the bladder was stopped. The intravesical pressure at the time the micturition reflex was induced was measured with the pressure transducer, and the obtained cystometrogram was recorded with pen recorder. The urine voided was collected with disposable type weighing dish and its weight was measured. Further the physiological saline remained in the bladder was sucked with syringe via the bladder catheter and the residual urine volume was measured. The operations of suspending the infusion of physiological saline upon induction of micturition reflex, and about 1 minute thereafter resuming the infusion of physiological saline to induce micturition reflex were repeated plural times (generally 4 times) to stabilize the micturition reflex.
After stabilizing the micturition reflex, a compound solution (prepared by dissolving the compound or methanesulfonic acid salt thereof in DMSO and diluting it with physiological saline or distilled water) or physiological saline was administered into the vein at a volume of 10 mL/kg over 4 minutes, and simultaneously the above-described micturition reflex operations were repeated until 30 minutes passed after initiation of the administration, while measuring the intravesical pressure and the volumes of micturition and residual urine. Also the frequency of uninhibited contraction occurrence during the above-described operations was recorded.

CC(C)c1ncc2c(=O)[nH]c3cc(C(=O)N(C)C)ccc3n12 [Example 9 (methanesulfonic acid salt)]
Frequency of occurrence of uninhibited contraction, after administration (0.3 mg/kg i.v.): 1.45 times/min
Frequency of occurrence of uninhibited contraction, quantitative change (0.3 mg/kg i.v.): −0.64 times/min
Residual urine volume, after administration (0.3 mg/kg i.v.): 0.11 mL
Residual urine volume, quantitative change (0.3 mg/kg i.v.): -0.32 mL
Frequency of occurrence of uninhibited contraction, after administration (3 mg/kg i.v.): 0.99 times/min
Frequency of occurrence of uninhibited contraction, quantitative change (3 mg/kg i.v.): −1.10 times/min
Residual urine volume, after administration (3 mg/kg i.v.): 0.63 mL
Residual urine volume, quantitative change (3 mg/kg i.v.): +0.20 mL
Frequency of occurrence of uninhibited contraction, after administration (10 mg/kg i.v.): 0.00 times/min
Frequency of occurrence of uninhibited contraction, quantitative change (10 mg/kg i.v.): −0.57 times/min
Residual urine volume, after administration (10 mg/kg i.v.): 0.03 mL
Residual urine volume, quantitative change (10 mg/kg i.v.): -0.34 mL
Frequency of occurrence of uninhibited contraction, before administration (dose group 0.3 mg/kg i.v.): 2.09 times/min
Residual urine volume, before administration (dose group 0.3 mg/kg i.v.): 0.43 mL
Frequency of occurrence of uninhibited contraction, before administration (dose group 3 mg/kg i.v.): 2.09 times/min
Residual urine volume, before administration (dose group 3 mg/kg i.v.): 0.43 mL
Frequency of occurrence of uninhibited contraction, before administration (dose group 10 mg/kg i.v.): 0.57 times/min
Residual urine volume, before administration (dose group 10 mg/kg i.v.): 0.37 mL

CC(C)c1ncc2c(=O)[nH]c3cc(Cl)ccc3n12 [Example 6 (methanesulfonic acid salt)]
Frequency of occurrence of uninhibited contraction, after administration (0.1 mg/kg i.v.): 1.82 times/min
Frequency of occurrence of uninhibited contraction, quantitative change (0.1 mg/kg i.v.): +0.62 times/min
Residual urine volume, after administration (0.1 mg/kg i.v.): 0.13 mL
Residual urine volume, quantitative change (0.1 mg/kg i.v.): -0.12 mL
Frequency of occurrence of uninhibited contraction, after administration (1 mg/kg i.v.): 1.97 times/min
Frequency of occurrence of uninhibited contraction, quantitative change (1 mg/kg i.v.): +0.77 times/min
Residual urine volume, after administration (1 mg/kg i.v.): 0.47 mL
Residual urine volume, quantitative change (1 mg/kg i.v.): 0.22 mL
Frequency of occurrence of uninhibited contraction, after administration (3 mg/kg i.v.): 0.68 times/min
Frequency of occurrence of uninhibited contraction, quantitative change (3 mg/kg i.v.): −0.52 times/min
Residual urine volume, after administration (3 mg/kg i.v.): 0.21 mL
Residual urine volume, quantitative change (3 mg/kg i.v.): -0.04 mL
Frequency of occurrence of uninhibited contraction, before administration (dose group 0.1 mg/kg i.v.): 1.20 times/min
Residual urine volume, before administration (dose group 0.1 mg/kg i.v.): 0.25 mL
Frequency of occurrence of uninhibited contraction, before administration (dose group 1 mg/kg i.v.): 1.20 times/min
Residual urine volume, before administration (dose group 1 mg/kg i.v.): 0.25 mL
Frequency of occurrence of uninhibited contraction, before administration (dose group 3 mg/kg i.v.): 1.20 times/min
Residual urine volume, before administration (dose group 3 mg/kg i.v.): 0.25 mL

From patent publication US8829000B2, “Substituted imidazo[1,5-A]quinoxalines as phosphodiesterase 9 inhibitors” (ASKA Pharmaceutical Co., Ltd., priority 2006, dated 2014)
